Test results reported in ChEMBL document CHEMBL1130110 (J Med Chem, 1997).

Key:
Glucagon receptor [1] = target: T1, Glucagon receptor (Rattus norvegicus, UniProt P30082); experiment: Effective concentration was determined in cAMP accumulation assay using isolated hepatocytes in the presence rolipram.; format: functional, cell-based; settings: hepatocyte
Glucagon receptor [2] = target: T1, Glucagon receptor; experiment: Binding affinity towards Glucagon receptor in rat liver plasma membranes by displacement of 125 I-labelled glucagon; format: cell membranes
Glucagon receptor [3] = target: T1, Glucagon receptor; experiment: pA2 value against Glucagon Receptor; settings: read-out: pA2 (converted)

T1 sequence (P30082 whole entry): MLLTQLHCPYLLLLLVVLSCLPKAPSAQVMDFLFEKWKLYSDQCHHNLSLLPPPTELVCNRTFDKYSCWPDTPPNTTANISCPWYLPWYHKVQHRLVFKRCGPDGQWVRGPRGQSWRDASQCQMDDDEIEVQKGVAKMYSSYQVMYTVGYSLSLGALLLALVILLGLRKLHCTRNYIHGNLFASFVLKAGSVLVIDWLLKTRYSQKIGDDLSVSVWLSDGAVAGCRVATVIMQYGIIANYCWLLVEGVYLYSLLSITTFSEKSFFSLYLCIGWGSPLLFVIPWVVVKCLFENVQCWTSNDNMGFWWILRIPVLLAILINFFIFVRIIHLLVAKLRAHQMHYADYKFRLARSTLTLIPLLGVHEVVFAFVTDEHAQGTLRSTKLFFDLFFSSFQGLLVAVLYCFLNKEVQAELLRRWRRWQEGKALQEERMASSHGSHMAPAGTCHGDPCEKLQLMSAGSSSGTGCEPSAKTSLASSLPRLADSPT

SMILES | EC50 (Glucagon receptor [1]) | IC50 (Glucagon receptor [2]) | Kb (Glucagon receptor [3])
CSCC[C@H](NC(=O)[C@H](CC(C)C)NC(=O)[C@H](Cc1c[nH]c2ccccc12)NC(=O)[C@H](CCC(N)=O)NC(=O)[C@@H](NC(=O)[C@H](Cc1ccccc1)NC(=O)[C@H](CC(=O)O)NC(=O)[C@H](CCC(N)=O)NC(=O)[C@H](C)NC(=O)[C@H](CCCN=C(N)N)NC(=O)[C@H](CCCN=C(N)N)NC(=O)[C@H](CO)NC(=O)[C@H](CC(=O)O)NC(=O)[C@H](CC(C)C)NC(=O)[C@H](Cc1ccc(O)cc1)NC(=O)[C@H](CCCCN)NC(=O)[C@H](CO)NC(=O)[C@H](Cc1ccc(O)cc1)NC(=O)[C@H](CCC(=O)O)NC(=O)[C@H](CO)NC(=O)[C@@H](NC(=O)[C@@H](NC(=O)CNC(=O)[C@H](CCC(N)=O)NC(=O)[C@H](CO)NC(=O)[C@@H](N)Cc1c[nH]cn1)[C@@H](C)O)[C@@H](C)O)C(C)C)C(=O)N[C@@H](CC(N)=O)C(=O)N[C@H](C(N)=O)[C@@H](C)O | Not Active | 113 nM | 631 nM
CSCC[C@H](NC(=O)[C@H](CC(C)C)NC(=O)[C@H](Cc1c[nH]c2ccccc12)NC(=O)[C@H](CCC(N)=O)NC(=O)[C@@H](NC(=O)[C@H](Cc1ccccc1)NC(=O)[C@H](CC(=O)O)NC(=O)[C@H](CCC(N)=O)NC(=O)[C@H](C)NC(=O)[C@H](CCCN=C(N)N)NC(=O)[C@H](CCCN=C(N)N)NC(=O)[C@H](CO)NC(=O)[C@H](CC(=O)O)NC(=O)[C@H](CC(C)C)NC(=O)[C@H](Cc1ccc(O)cc1)NC(=O)[C@H](CCCCN)NC(=O)[C@H](CO)NC(=O)[C@H](Cc1ccc(O)cc1)NC(=O)[C@H](CC(=O)O)NC(=O)[C@H](CO)NC(=O)[C@@H](NC(=O)[C@@H](NC(=O)CNC(=O)[C@H](CCC(N)=O)NC(=O)[C@@H](N)CO)[C@@H](C)O)[C@@H](C)O)C(C)C)C(=O)N[C@@H](CC(N)=O)C(=O)N[C@H](C(=O)O)[C@@H](C)O | Not Active | – | –
CC(C)C[C@H](NC(=O)[C@H](Cc1ccc(O)cc1)NC(=O)[C@H](CCCCN)NC(=O)[C@H](CO)NC(=O)[C@H](Cc1ccc(O)cc1)NC(=O)[C@H](CC(=O)O)NC(=O)[C@H](CO)NC(=O)[C@@H](NC(=O)[C@@H](NC(=O)CNC(=O)[C@H](CCC(N)=O)NC(=O)[C@H](CO)NC(=O)[C@@H](N)Cc1c[nH]cn1)[C@@H](C)O)[C@@H](C)O)C(=O)N[C@@H](CC(=O)O)C(=O)N[C@@H](CO)C(=O)N[C@@H](CCCN=C(N)N)C(=O)N[C@@H](CCCN=C(N)N)C(=O)N[C@@H](C)C(=O)N[C@@H](CCC(N)=O)C(=O)N[C@@H](CC(=O)O)C(=O)N[C@@H](Cc1ccccc1)C(=O)N[C@H](C(=O)N[C@@H](CCC(N)=O)C(=O)N[C@@H](Cc1c[nH]c2ccccc12)C(=O)N[C@@H](CC(C)C)C(=O)N[C@@H](CCS)C(=O)N[C@@H](CC(N)=O)C(=O)N[C@H](C=O)[C@@H](C)O)C(C)C | Not Active | – | –
CSCC[C@H](NC(=O)[C@H](CC(C)C)NC(=O)[C@H](Cc1c[nH]c2ccccc12)NC(=O)[C@H](CCC(N)=O)NC(=O)[C@@H](NC(=O)[C@H](Cc1ccccc1)NC(=O)[C@H](CC(=O)O)NC(=O)[C@H](CCC(N)=O)NC(=O)[C@H](C)NC(=O)[C@H](CCCN=C(N)N)NC(=O)[C@H](CCCN=C(N)N)NC(=O)[C@H](CO)NC(=O)[C@H](CC(=O)O)NC(=O)[C@H](CC(C)C)NC(=O)[C@H](Cc1ccc(O)cc1)NC(=O)[C@H](CCCCN)NC(=O)[C@H](CO)NC(=O)[C@H](Cc1ccc(O)cc1)NC(=O)[C@H](CC(=O)O)NC(=O)[C@H](CO)NC(=O)[C@@H](NC(=O)[C@@H](NC(=O)CNC(=O)[C@H](CCC(N)=O)NC(=O)[C@H](CO)NC(=O)[C@@H](N)Cc1c[nH]cn1)[C@@H](C)O)[C@@H](C)O)C(C)C)C(=O)N[C@@H](CC(N)=O)C(=O)N[C@H](C(N)=O)[C@@H](C)O | Not Active | 512 nM | 501 nM

Further lines, results first:

EC50 (Glucagon receptor [1]) | IC50 (Glucagon receptor [2]) | Kb (Glucagon receptor [3]) | SMILES
Not Active | – | – | CSCC[C@H](NC(=O)[C@H](CC(C)C)NC(=O)[C@H](Cc1c[nH]c2ccccc12)NC(=O)[C@H](CCC(N)=O)NC(=O)[C@@H](NC(=O)[C@H](Cc1ccccc1)NC(=O)[C@H](CC(=O)O)NC(=O)[C@H](CCC(N)=O)NC(=O)[C@H](C)NC(=O)[C@H](CCCN=C(N)N)NC(=O)[C@H](CCCN=C(N)N)NC(=O)[C@H](CO)NC(=O)[C@H](CC(=O)O)NC(=O)[C@H](CC(C)C)NC(=O)[C@H](Cc1ccc(O)cc1)NC(=O)[C@H](CCCCN)NC(=O)[C@H](CO)NC(=O)[C@H](Cc1ccc(O)cc1)NC(=O)[C@H](CCC(=O)O)NC(=O)[C@H](CO)NC(=O)[C@@H](NC(=O)[C@H](C)NC(=O)[C@@H](NC(=O)CNC(=O)[C@H](CCC(N)=O)NC(=O)[C@@H](N)CO)[C@@H](C)O)[C@@H](C)O)C(C)C)C(=O)N[C@@H](CC(N)=O)C(=O)N[C@H](C(N)=O)[C@@H](C)O
Not Active | – | – | CSCC[C@H](NC(=O)[C@H](CC(C)C)NC(=O)[C@H](Cc1c[nH]c2ccccc12)NC(=O)[C@H](CCC(N)=O)NC(=O)[C@@H](NC(=O)[C@H](Cc1ccccc1)NC(=O)[C@H](CC(=O)O)NC(=O)[C@H](CCC(N)=O)NC(=O)[C@H](C)NC(=O)[C@H](CCCN=C(N)N)NC(=O)[C@H](CCCN=C(N)N)NC(=O)[C@H](CO)NC(=O)[C@H](CC(=O)O)NC(=O)[C@H](CC(C)C)NC(=O)[C@H](Cc1ccc(O)cc1)NC(=O)[C@H](CCCCN)NC(=O)[C@H](CO)NC(=O)[C@H](Cc1ccc(O)cc1)NC(=O)[C@H](CCC(=O)O)NC(=O)[C@H](CO)NC(=O)[C@@H](NC(=O)[C@@H](NC(=O)CNC(=O)[C@H](CCC(N)=O)NC(=O)[C@@H](N)CO)[C@@H](C)O)[C@@H](C)O)C(C)C)C(=O)N[C@@H](CC(N)=O)C(=O)N[C@H](C(=O)O)[C@@H](C)O (stereo in doubt; 13)
Not Active | 128 nM | 562 nM | CSCC[C@H](NC(=O)[C@H](CC(C)C)NC(=O)[C@H](Cc1c[nH]c2ccccc12)NC(=O)[C@H](CCC(N)=O)NC(=O)[C@@H](NC(=O)[C@H](Cc1ccccc1)NC(=O)[C@H](CC(=O)O)NC(=O)[C@H](CCC(N)=O)NC(=O)[C@H](C)NC(=O)[C@H](CCCN=C(N)N)NC(=O)[C@H](CCCN=C(N)N)NC(=O)[C@H](CO)NC(=O)[C@H](CC(=O)O)NC(=O)[C@H](CC(C)C)NC(=O)[C@H](Cc1ccc(O)cc1)NC(=O)[C@H](CCCCN)NC(=O)[C@H](CO)NC(=O)[C@H](Cc1ccc(O)cc1)NC(=O)[C@H](CC(=O)O)NC(=O)[C@H](CO)NC(=O)[C@@H](NC(=O)[C@@H](NC(=O)CNC(=O)[C@H](CCC(N)=O)NC(=O)[C@@H](N)CO)[C@@H](C)O)[C@@H](C)O)C(C)C)C(=O)N[C@@H](CC(N)=O)C(=O)N[C@H](C(N)=O)[C@@H](C)O
Not Active | – | – | CSCC[C@H](NC(=O)[C@H](CC(C)C)NC(=O)[C@H](Cc1c[nH]c2ccccc12)NC(=O)[C@H](CCC(N)=O)NC(=O)[C@@H](NC(=O)[C@H](Cc1ccccc1)NC(=O)[C@H](CC(=O)O)NC(=O)[C@H](CCC(N)=O)NC(=O)[C@H](C)NC(=O)[C@H](CCCN=C(N)N)NC(=O)[C@H](CCCN=C(N)N)NC(=O)[C@H](CO)NC(=O)[C@H](CC(=O)O)NC(=O)[C@H](CC(C)C)NC(=O)[C@H](Cc1ccc(O)cc1)NC(=O)[C@H](CCCCN)NC(=O)[C@H](CO)NC(=O)[C@H](Cc1ccc(O)cc1)NC(=O)[C@H](CCC(=O)O)NC(=O)[C@H](CO)NC(=O)[C@@H](NC(=O)[C@H](CC(=O)O)NC(=O)[C@@H](NC(=O)CNC(=O)[C@H](CCC(N)=O)NC(=O)[C@@H](N)CO)[C@@H](C)O)[C@@H](C)O)C(C)C)C(=O)N[C@@H](CC(N)=O)C(=O)N[C@H](C(N)=O)[C@@H](C)O
